From the supplement of paper PMC10307832

Assays:
Assay in all cases: relative viability (nuclei count vs DMSO), 5 days (fraction); higher = more cells survive
BEN = system: BEN
Procedure, shortened: (§1)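 Five library-drug doses in √10 steps were combined with a fixed anchor-drug dose, or a single drug was given alone, by pin tool to lung cancer cell lines in 1536-well plates the day after seeding. Nuclei were stained and counted after 5 days. Relative viability is the nuclei count in treated wells over that in vehicle wells, taken as the median of duplicate plates.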

EKVX = system: EKVX
Procedure, shortened: as §1

HARA = system: HARA
Procedure, shortened: as §1

HCC-366 = system: HCC-366
Procedure, shortened: as §1

HCC-827 = system: HCC-827
Procedure, shortened: as §1

LC-2-ad = system: LC-2-ad
Procedure, shortened: as §1

LOU-NH91 = system: LOU-NH91
Procedure, shortened: as §1

NCI-H1355 = system: NCI-H1355
Procedure, shortened: as §1

NCI-H1395 = system: NCI-H1395
Procedure, shortened: as §1

NCI-H1437 = system: NCI-H1437
Procedure, shortened: as §1

NCI-H1734 = system: NCI-H1734
Procedure, shortened: as §1

NCI-H1792 = system: NCI-H1792
Procedure, shortened: as §1

NCI-H2009 = system: NCI-H2009
Procedure, shortened: as §1

NCI-H2087 = system: NCI-H2087
Procedure, shortened: as §1

NCI-H2170 = system: NCI-H2170
Procedure, shortened: as §1

NCI-H2228 = system: NCI-H2228
Procedure, shortened: as §1

NCI-H2342 = system: NCI-H2342
Procedure, shortened: as §1

NCI-H2405 = system: NCI-H2405
Procedure, shortened: as §1

NCI-H647 = system: NCI-H647
Procedure, shortened: as §1

NCI-H661 = system: NCI-H661
Procedure, shortened: as §1

SK-LU-1 = system: SK-LU-1
Procedure, shortened: as §1

SK-MES-1 = system: SK-MES-1
Procedure, shortened: as §1

CC1(C)CCC(c2ccc(Cl)cc2)=C(CN2CCN(c3ccc(C(=O)NS(=O)(=O)c4ccc(N[C@H](CCN5CCOCC5)CSc5ccccc5)c(S(=O)(=O)C(F)(F)F)c4)cc3)CC2)C1 [Navitoclax] + CC(=O)c1c(C)c2cnc(Nc3ccc(N4CCNCC4)cn3)nc2n(C2CCCC2)c1=O [Palbociclib] (partner 0.5 µM)
relative viability (BEN; first compound 0.005 µM): 0.475
relative viability (BEN; first compound 0.01581 µM): 0.525
relative viability (BEN; first compound 0.05 µM): 0.462
relative viability (BEN; first compound 0.1581 µM): 0.399
relative viability (BEN; first compound 0.5 µM): 0.268
relative viability (EKVX; first compound 0.005 µM): 0.44
relative viability (EKVX; first compound 0.01581 µM): 0.405
relative viability (EKVX; first compound 0.05 µM): 0.422
relative viability (EKVX; first compound 0.1581 µM): 0.403
relative viability (EKVX; first compound 0.5 µM): 0.388
relative viability (HARA; first compound 0.005 µM): 0.236
relative viability (HARA; first compound 0.01581 µM): 0.271
relative viability (HARA; first compound 0.05 µM): 0.243
relative viability (HARA; first compound 0.1581 µM): 0.191
relative viability (HARA; first compound 0.5 µM): 0.216
relative viability (HCC-366; first compound 0.005 µM): 0.355
relative viability (HCC-366; first compound 0.01581 µM): 0.48
relative viability (HCC-366; first compound 0.1581 µM): 0.35
relative viability (HCC-366; first compound 0.5 µM): 0.34
relative viability (HCC-827; first compound 0.005 µM): 0.582
relative viability (HCC-827; first compound 0.01581 µM): 0.528
relative viability (HCC-827; first compound 0.05 µM): 0.374
relative viability (HCC-827; first compound 0.1581 µM): 0.477
relative viability (HCC-827; first compound 0.5 µM): 0.437
relative viability (LC-2-ad; first compound 0.005 µM): 0.505
relative viability (LC-2-ad; first compound 0.01581 µM): 0.452
relative viability (LC-2-ad; first compound 0.05 µM): 0.456
relative viability (LC-2-ad; first compound 0.1581 µM): 0.413
relative viability (LC-2-ad; first compound 0.5 µM): 0.412
relative viability (LOU-NH91; first compound 0.005 µM): 0.53
relative viability (LOU-NH91; first compound 0.01581 µM): 0.523
relative viability (LOU-NH91; first compound 0.05 µM): 0.441
relative viability (LOU-NH91; first compound 0.1581 µM): 0.477
relative viability (LOU-NH91; first compound 0.5 µM): 0.409
relative viability (NCI-H1355; first compound 0.005 µM): 0.381
relative viability (NCI-H1355; first compound 0.01581 µM): 0.438
relative viability (NCI-H1355; first compound 0.05 µM): 0.429
relative viability (NCI-H1355; first compound 0.1581 µM): 0.385
relative viability (NCI-H1355; first compound 0.5 µM): 0.409
relative viability (NCI-H1395; first compound 0.005 µM): 0.617
relative viability (NCI-H1395; first compound 0.01581 µM): 0.664
relative viability (NCI-H1395; first compound 0.05 µM): 0.674
relative viability (NCI-H1395; first compound 0.1581 µM): 0.653
relative viability (NCI-H1395; first compound 0.5 µM): 0.583
relative viability (NCI-H1437; first compound 0.005 µM): 0.295
relative viability (NCI-H1437; first compound 0.01581 µM): 0.317
relative viability (NCI-H1437; first compound 0.05 µM): 0.2
relative viability (NCI-H1437; first compound 0.1581 µM): 0.291
relative viability (NCI-H1437; first compound 0.5 µM): 0.308
relative viability (NCI-H1734; first compound 0.005 µM): 0.339
relative viability (NCI-H1734; first compound 0.01581 µM): 0.374
relative viability (NCI-H1734; first compound 0.1581 µM): 0.296
relative viability (NCI-H1734; first compound 0.5 µM): 0.367
relative viability (NCI-H1792; first compound 0.005 µM): 0.651
relative viability (NCI-H1792; first compound 0.01581 µM): 0.661
relative viability (NCI-H1792; first compound 0.05 µM): 0.563
relative viability (NCI-H1792; first compound 0.1581 µM): 0.628
relative viability (NCI-H1792; first compound 0.5 µM): 0.647
relative viability (NCI-H2009; first compound 0.005 µM): 0.186
relative viability (NCI-H2009; first compound 0.01581 µM): 0.302
relative viability (NCI-H2009; first compound 0.05 µM): 0.202
relative viability (NCI-H2009; first compound 0.1581 µM): 0.255
relative viability (NCI-H2009; first compound 0.5 µM): 0.222
relative viability (NCI-H2087; first compound 0.005 µM): 0.22
relative viability (NCI-H2087; first compound 0.01581 µM): 0.244
relative viability (NCI-H2087; first compound 0.1581 µM): 0.255
relative viability (NCI-H2087; first compound 0.5 µM): 0.257
relative viability (NCI-H2170; first compound 0.005 µM): 0.391
relative viability (NCI-H2170; first compound 0.01581 µM): 0.382
relative viability (NCI-H2170; first compound 0.05 µM): 0.409
relative viability (NCI-H2170; first compound 0.1581 µM): 0.394
relative viability (NCI-H2170; first compound 0.5 µM): 0.377
relative viability (NCI-H2228; first compound 0.005 µM): 0.915
relative viability (NCI-H2228; first compound 0.01581 µM): 0.986
relative viability (NCI-H2228; first compound 0.1581 µM): 0.703
relative viability (NCI-H2228; first compound 0.5 µM): 0.687
relative viability (NCI-H2342; first compound 0.005 µM): 0.611
relative viability (NCI-H2342; first compound 0.01581 µM): 0.531
relative viability (NCI-H2342; first compound 0.05 µM): 0.541
relative viability (NCI-H2342; first compound 0.1581 µM): 0.477
relative viability (NCI-H2342; first compound 0.5 µM): 0.629
relative viability (NCI-H2405; first compound 0.005 µM): 0.501
relative viability (NCI-H2405; first compound 0.01581 µM): 0.562
relative viability (NCI-H2405; first compound 0.05 µM): 0.562
relative viability (NCI-H2405; first compound 0.1581 µM): 0.511
relative viability (NCI-H2405; first compound 0.5 µM): 0.506
relative viability (NCI-H647; first compound 0.005 µM): 0.336
relative viability (NCI-H647; first compound 0.01581 µM): 0.359
relative viability (NCI-H647; first compound 0.05 µM): 0.24
relative viability (NCI-H647; first compound 0.1581 µM): 0.414
relative viability (NCI-H647; first compound 0.5 µM): 0.344
relative viability (NCI-H661; first compound 0.005 µM): 0.426
relative viability (NCI-H661; first compound 0.01581 µM): 0.451
relative viability (NCI-H661; first compound 0.05 µM): 0.387
relative viability (NCI-H661; first compound 0.1581 µM): 0.435
relative viability (NCI-H661; first compound 0.5 µM): 0.384
relative viability (SK-LU-1; first compound 0.005 µM): 0.396
relative viability (SK-LU-1; first compound 0.01581 µM): 0.508
relative viability (SK-LU-1; first compound 0.05 µM): 0.337
relative viability (SK-LU-1; first compound 0.1581 µM): 0.384
relative viability (SK-LU-1; first compound 0.5 µM): 0.414
relative viability (SK-MES-1; first compound 0.005 µM): 0.332
relative viability (SK-MES-1; first compound 0.01581 µM): 0.343
relative viability (SK-MES-1; first compound 0.05 µM): 0.336
relative viability (SK-MES-1; first compound 0.1581 µM): 0.303
relative viability (SK-MES-1; first compound 0.5 µM): 0.385
